Measured values as given in article PMC4233179 (Molecular cancer research : MCR, 2014).

Target: T1, NEDD4-1 (Homo sapiens, UniProt P46934)
T1 sequence (P46934 1-1319): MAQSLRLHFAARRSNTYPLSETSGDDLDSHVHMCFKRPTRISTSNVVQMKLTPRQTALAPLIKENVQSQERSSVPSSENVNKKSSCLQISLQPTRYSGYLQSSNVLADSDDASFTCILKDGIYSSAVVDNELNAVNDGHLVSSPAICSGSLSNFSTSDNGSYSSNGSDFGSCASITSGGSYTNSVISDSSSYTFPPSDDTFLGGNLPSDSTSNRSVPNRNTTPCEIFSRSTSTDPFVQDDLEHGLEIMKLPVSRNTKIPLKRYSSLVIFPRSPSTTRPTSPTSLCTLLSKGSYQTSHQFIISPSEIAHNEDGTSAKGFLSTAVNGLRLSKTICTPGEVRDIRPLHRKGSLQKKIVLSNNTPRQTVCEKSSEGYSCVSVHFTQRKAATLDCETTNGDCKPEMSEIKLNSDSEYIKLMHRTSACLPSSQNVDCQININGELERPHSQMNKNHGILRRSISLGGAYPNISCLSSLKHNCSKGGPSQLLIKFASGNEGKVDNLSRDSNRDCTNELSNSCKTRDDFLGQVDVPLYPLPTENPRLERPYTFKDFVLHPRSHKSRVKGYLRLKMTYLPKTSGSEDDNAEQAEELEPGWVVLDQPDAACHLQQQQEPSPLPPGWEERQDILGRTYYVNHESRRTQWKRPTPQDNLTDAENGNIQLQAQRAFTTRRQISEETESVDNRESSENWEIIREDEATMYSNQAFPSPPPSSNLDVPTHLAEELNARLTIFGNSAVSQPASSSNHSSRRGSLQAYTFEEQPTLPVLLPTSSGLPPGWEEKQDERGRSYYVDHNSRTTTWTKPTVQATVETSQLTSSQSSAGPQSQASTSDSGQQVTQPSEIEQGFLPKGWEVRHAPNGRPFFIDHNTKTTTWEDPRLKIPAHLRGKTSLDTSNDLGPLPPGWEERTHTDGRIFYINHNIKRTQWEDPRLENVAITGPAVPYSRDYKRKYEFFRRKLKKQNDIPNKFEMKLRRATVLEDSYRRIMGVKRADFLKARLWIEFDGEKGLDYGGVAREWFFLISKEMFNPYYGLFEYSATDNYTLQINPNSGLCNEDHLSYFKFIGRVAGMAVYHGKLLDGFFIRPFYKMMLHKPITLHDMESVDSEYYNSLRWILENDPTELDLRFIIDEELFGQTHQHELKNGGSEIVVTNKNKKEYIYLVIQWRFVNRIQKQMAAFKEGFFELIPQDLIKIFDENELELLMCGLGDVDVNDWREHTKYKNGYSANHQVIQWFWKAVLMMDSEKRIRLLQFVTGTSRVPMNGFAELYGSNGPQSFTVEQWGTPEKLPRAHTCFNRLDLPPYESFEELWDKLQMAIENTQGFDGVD
Assay: isothermal titration calorimetry
Assay type: binding

Kd: ~88.1 µM
SMILES: OCc1c[nH]c2ccccc12 [I3C, indole-3-carbinol]
